Laboratory results reported in ChEMBL document CHEMBL2150933 (J Med Chem, 2012).

What was measured:
Assay type in all cases: functional
BXPC-3 = experiment: Cytotoxicity against human BxPC3 cells after 72 hrs by MTT assay; settings: BXPC-3, 72 h
COLO 205 [1] = experiment: Cytotoxicity against human COLO205 cells after 72 hrs by MTT assay; settings: COLO 205, 72 h
MDA-MB-231 = experiment: Cytotoxicity against human MDA-MB-231 cells after 48 hrs by SRB assay; settings: MDA-MB-231, 48 h
COLO 205 [2] = experiment: Cytotoxicity against human COLO205 cells after 48 hrs by SRB assay; settings: COLO 205, 48 h
[3] = Cytotoxicity against human 786-O cells after 48 hrs by SRB assay; settings: 786-0, 48 h
A549 [4] = experiment: Cytotoxicity against human A549 cells after 72 hrs by MTT assay; settings: A549, 72 h
A549 [5] = experiment: Cytotoxicity against human A549 cells after 48 hrs by SRB assay; settings: A549, 48 h
U-251 = experiment: Cytotoxicity against human U251 cells after 48 hrs by SRB assay; settings: U-251, 48 h, read-out: GI50
SF-295 = experiment: Cytotoxicity against human SF295 cells after 48 hrs by SRB assay; settings: SF-295, 48 h, read-out: GI50
OVCAR-8 = experiment: Cytotoxicity against human OVCAR8 cells after 48 hrs by SRB assay; settings: OVCAR-8, 48 h, read-out: GI50
IGROV-1 = experiment: Cytotoxicity against human IGROV1 cells after 48 hrs by SRB assay; settings: IGROV-1, 48 h, read-out: GI50
SK-MEL-5 = experiment: Cytotoxicity against human SK-MEL-5 cells after 48 hrs by SRB assay; settings: SK-MEL-5, 48 h, read-out: GI50

Row | Compound | GI50 (BXPC-3) [nM] | GI50 (COLO 205 [1]) [nM] | GI50 (MDA-MB-231; read-out: pGI50 (converted)) [nM] | GI50 (COLO 205 [2]; read-out: pGI50 (converted)) [nM] | GI50 [3] [nM] | GI50 (A549 [4]) [nM] | GI50 (A549 [5]; read-out: pGI50 (converted)) [nM] | GI50 (U-251) [nM] | GI50 (SF-295) [nM] | GI50 (OVCAR-8) [nM] | GI50 (MDA-MB-231; read-out: GI50) [nM] | GI50 (COLO 205 [2]; read-out: GI50) [nM] | GI50 (IGROV-1) [nM] | GI50 (SK-MEL-5) [nM] | GI50 (A549 [5]; read-out: GI50) [nM]
1 | CO[C@H](C(=O)C(C)=O)[C@@H]1Cc2cc3cc(O[C@H]4C[C@@H](O[C@H]5C[C@@H](O)[C@H](O)[C@@H](C)O5)[C@H](O)[C@@H](C)O4)c(C)c(O)c3c(O)c2C(=O)[C@H]1O[C@H]1C[C@@H](O[C@H]2C[C@@H](O)[C@H](O)[C@@H](C)O2)[C@H](O)[C@@H](C)O1 | 300 | 300 | 240 | 83.2 | 166 | 300 | 170 | – | – | – | – | – | – | – | –
2 | CO[C@H](C(=O)[C@@H](O)[C@@H](C)O)[C@@H]1Cc2cc3cc(O[C@H]4C[C@@H](O[C@@H]5C[C@@H](O)[C@H](O)[C@@H](C)O5)[C@H](O)[C@@H](C)O4)c(C)c(O)c3c(O)c2C(=O)[C@H]1O[C@H]1C[C@@H](O[C@@H]2C[C@@H](O)[C@@H](O[C@@H]3C[C@](C)(O)[C@H](O)[C@@H](C)O3)[C@@H](C)O2)[C@H](O)[C@@H](C)O1 [PLICAMYCIN] | – | – | – | – | – | – | – | 63 | 79 | 79 | 166 | 63 | 158 | 63 | 79
